Here are results for 8 molecules from paper PMC6429183, “Identification of Compounds That Inhibit Estrogen-Related Receptor Alpha Signaling Using High-Throughput Screening Assays” (Molecules, 2019).

As a reminder, the EC50 is the concentration needed to bring the measured effect to its halfway point. Read a low EC50 as higher potency in that assay.

For test [1], the system named is ERR reporter HEK293 cells. Put plainly: CellTiter-Fluor cell viability assay multiplexed with ERR reporter assay. Type of test: cell-based. Particulars: for ERR-HEK293 Follow-Up Viability EC50: follow-up screen; for ERR-HEK293 Primary Viability EC50: primary qHTS, viability counter screen. As for the experimental part:
(§1) ERR or PGC/ERR reporter HEK293 cells suspended in culture medium without puromycin were dispensed at 2500 cells/5 μL/well in tissue culture–treated 1536-well white assay plates (Greiner Bio-One North America, Monroe, NC, USA) using a Thermo Scientific Multidrop Combi (ThermoFisher Scientific, Inc.). […] After the cells were incubated at 37 °C with 5% CO2 for 6 h, 23 nL of compounds or control, XTC790, was transferred into the assay plates using a Wako Pintool station (Wako Automation, San Diego, CA, USA). The assay plates were incubated at 37 °C for 18 h, followed by the addition of 5 μL ONE-Glo luciferase reagent (Promega, Madison, WI, USA) using a Flying Reagent Dispenser (Aurora Discovery, Carlsbad, CA, USA). After 30 min of incubation at room temperature, the luminescence intensity of the assay plates was quantified using a ViewLux plate reader (PerkinElmer, Shelton, CT, USA). The assays were performed three times for each compound concentration. These ERR and PGC/ERR reporter assays were multiplexed with the CellTiter-Fluor Cell Viability Assay (Promega), a fluorescence-based cell viability assay, to assess compound cytotoxicity.
The qHTS data were analyzed as described previously. […] The DMSO-only compound plates at the beginning and end of the compound plate stack were used to correct the data set by applying an in-house pattern correction algorithm. The half maximum inhibition values (IC50) for each compound and maximum response (efficacy) values were obtained by fitting the concentration-response curves of each compound to a four-parameter Hill equation [91]. […] For each reading, the activity outcome of a test compound was first categorized by the average curve rank from the triplicate runs and the reproducibility calls. The final activity outcome of each compound was based on the ERR antagonist readout activity and cell viability counter screen.
(In general: Reporter assays use an easily measured gene product as a stand-in for the process of interest.)

Test [2] concerns PGC/ERR reporter HEK293 cells. Put plainly: CellTiter-Fluor cell viability assay multiplexed with PGC/ERR reporter assay. Type of test: cell-based. The following applies: for PGC/ERR-HEK293 Follow-Up Viability EC50: follow-up screen; for PGC/ERR-HEK293 Primary Viability EC50: primary qHTS. As for the experimental part: as §1
The qHTS data were analyzed as described previously. Each titration point was normalized relative to the positive control compound (XCT790 = −100%) and DMSO-only wells (0%) according to the following equation: % Activity = [(Vcompound − VDMSO)/(VDMSO − Vpos)] × 100, where Vcompound denotes the compound well values, Vpos denotes the median value of the positive control wells, and VDMSO denotes the median values of the DMSO-only wells. The DMSO-only compound plates at the beginning and end of the compound plate stack were used to correct the data set by applying an in-house pattern correction algorithm. The half maximum inhibition values (IC50) for each compound and maximum response (efficacy) values were obtained by fitting the concentration-response curves of each compound to a four-parameter Hill equation [91]. Compounds were designated as Class 1–4 according to the type of concentration–response curve observed. For each reading, the activity outcome of a test compound was first categorized by the average curve rank from the triplicate runs and the reproducibility calls. The final activity outcome of each compound was based on the ERR antagonist readout activity and cell viability counter screen.

Test [3] addresses T1, ERRα with PGC-1α (PGC/ERR pathway) (Homo sapiens, UniProt P11474).
T1 sequence (P11474 1-423): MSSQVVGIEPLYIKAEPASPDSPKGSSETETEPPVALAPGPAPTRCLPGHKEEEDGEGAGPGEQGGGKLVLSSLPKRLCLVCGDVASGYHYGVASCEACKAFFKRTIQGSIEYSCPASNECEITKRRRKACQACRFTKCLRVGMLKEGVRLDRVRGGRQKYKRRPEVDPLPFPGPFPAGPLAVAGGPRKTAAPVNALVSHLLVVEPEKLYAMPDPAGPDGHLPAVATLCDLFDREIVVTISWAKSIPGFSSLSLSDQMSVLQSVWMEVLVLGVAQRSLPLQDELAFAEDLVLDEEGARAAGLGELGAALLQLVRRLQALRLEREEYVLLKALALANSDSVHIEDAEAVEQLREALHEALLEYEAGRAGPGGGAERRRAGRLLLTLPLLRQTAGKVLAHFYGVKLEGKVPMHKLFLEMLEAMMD
Put plainly: PGC/ERR reporter (luciferase) qHTS assay, PGC/ERR-HEK293. Particulars: for PGC/ERR-HEK293 Follow-Up Efficacy / PGC/ERR-HEK293 Primary Efficacy: negative = antagonism, positive = agonism. (In general: In qHTS, concentration-response curves come from the screen itself.)
Procedure: (§3) The ERR reporter HEK293 cells were cultured in high glucose DMEM medium (ThermoFisher Scientific, Inc., Waltham, MA, USA) supplemented with 10% fetal bovine serum (FBS; ThermoFisher Scientific, Inc.), 4 mM of L-glutamine (ThermoFisher Scientific, Inc.), 1 mM of sodium pyruvate (ThermoFisher Scientific, Inc.), 100 U/mL of penicillin and 100 mg/mL of streptomycin (ThermoFisher Scientific, Inc.). PGC/ERR reporter HEK293 cells were cultured in the same medium as the ERR reporter HEK293 cells with an additional 1 μg/mL puromycin (ThermoFisher Scientific, Inc.) as the selection marker for PGC-1α expression.
(§4) The DMSO-only compound plates at the beginning and end of the compound plate stack were used to correct the data set by applying an in-house pattern correction algorithm [90]. The half maximum inhibition values (IC50) for each compound and maximum response (efficacy) values were obtained by fitting the concentration-response curves of each compound to a four-parameter Hill equation [91]. […] For each reading, the activity outcome of a test compound was first categorized by the average curve rank from the triplicate runs and the reproducibility calls. The final activity outcome of each compound was based on the ERR antagonist readout activity and cell viability counter screen.

Test [4] addresses T2, estrogen-related receptor alpha (ERRα) (Homo sapiens, UniProt P11474).
T2 sequence (P11474 1-423): T1 sequence (P11474 1-423)
Put plainly: ERR reporter (luciferase) antagonist qHTS assay, ERR-HEK293. The following applies: for ERR-HEK293 Follow-Up Efficacy: follow-up screen; for ERR-HEK293 Follow-Up Efficacy / ERR-HEK293 Primary Efficacy: relative to XCT790 = −100%; for ERR-HEK293 Primary Efficacy: primary qHTS, DMSO = 0%.
Procedure: as §3, §4

The next test has as its system IDH3α. The experiment in a line: qRT-PCR mRNA expression of ERR downstream gene IDH3α. Type of test: cell-based. The following applies: ERR reporter cells, vs GAPDH, DMSO = 0%. As for the experimental part:
(§2) Total RNA was isolated from treated ERR reporter cells using an RNeasy Mini Kit (Qiagen, Germantown, MD, USA), homogenized using a QIAshredder (Qiagen), and reverse transcribed with a High-Capacity RNA-to-cDNA™ Kit (ThermoFisher Scientific, Inc.) following the manufacturers’ instructions. Expression of ERRα, COX8α, IDH3α, PPARα, COX4I1, and cytochrome c genes was normalized against GAPDH. All primers were purchased from ThermoFisher Scientific, Inc. Real-time PCR assays were performed in 384-well plates on a QuantStudio 5 (Applied Biosystems, Foster City, CA, USA) with TaqMan™ Gene Expression Master Mix (ThermoFisher Scientific, Inc.). Induction values were calculated using the equation: Fold = 2^ΔΔCt, where ΔCt represents the differences in cycle threshold numbers between each of the target genes and GAPDH, and ΔΔCt represents the relative change in these differences between control and treatment groups. Experimental data are presented as a mean of triplicate determinations ± SD. Statistical comparisons were made by t-test, while the statistical significance was set at p values of <0.05 (light blue), <0.01 (medium blue), and <0.001 (dark blue).
On the technique in general: Real-time PCR tracks product formation cycle by cycle.

The next test has as its system COX8α. The experiment in a line: qRT-PCR mRNA expression of ERR downstream gene COX8α. Type of test: cell-based. Particulars: ERR reporter cells, vs GAPDH, DMSO = 0%. As for the experimental part:
as §2

In another test the test system is cytochrome c. Put plainly: qRT-PCR mRNA expression of ERR downstream gene cytochrome c. Type of test: cell-based. Particulars: ERR reporter cells, vs GAPDH, DMSO = 0%. As for the experimental part: as §2
The mark [5] stands for this setting: ERR-HEK293 Follow-Up EC50, follow-up (confirmation) screen, mean ± SD, triplicate.
The mark [6] stands for this setting: ERR-HEK293 Primary EC50, primary qHTS, 18 h, 15 concentrations, mean ± SD, triplicate.
The mark [7] stands for this setting: PGC/ERR-HEK293 Follow-Up EC50, follow-up screen, mean ± SD, triplicate.
The mark [8] stands for this setting: PGC/ERR-HEK293 Primary EC50, primary qHTS, 18 h, mean ± SD, triplicate.

Where “and” joins values, the source holds several entries; their conditions need not be identical. Equal values may be shown once. Where a name gives a salt, the structure may show the parent alone.

Take `CC[C@@]1(O)C(=O)OCc2c1cc1n(c2=O)Cc2c-1nc1ccccc1c2/C=N/OC(C)(C)C` [Gimatecan]: in test [1], the “ERR-HEK293 Follow-Up Viability EC50” value was “Inactive” and the “ERR-HEK293 Primary Viability EC50” value is reported as “Inactive”. In addition, in test [2], the “PGC/ERR-HEK293 Follow-Up Viability EC50” value was “Inactive” and the “PGC/ERR-HEK293 Primary Viability EC50” value is “Inactive”. In test [3] (PGC/ERR-HEK293 Follow-Up EC50), this molecule registered a concentration for a half-maximal effect (EC50) of 3340 nM. The concentration giving a half-maximal response (EC50) in test [3] (PGC/ERR-HEK293 Primary EC50) amounted to 2530 nM. In addition, in test [3] (follow-up screen), the “PGC/ERR-HEK293 Follow-Up Efficacy” value is given as −130 ± 20.6%. Besides, in test [3] (primary qHTS), the “PGC/ERR-HEK293 Primary Efficacy” value is −115 ± 2.20%. Further, the EC50 in test [4] (ERR-HEK293 Follow-Up EC50) stood at 44.2 nM. Moreover, the half-maximal effective concentration (EC50) in test [4] (ERR-HEK293 Primary EC50) worked out at 49.7 nM. Further, in test [4], the “ERR-HEK293 Follow-Up Efficacy” value was −145 ± 16.0% and the “ERR-HEK293 Primary Efficacy” value is given as −117 ± 14.5%.
`Nc1ncn([C@H]2C[C@H](O)[C@@H](CO)O2)c(=O)n1` [Decitabine]: in the test with IDH3α (2 µM), the “Percent inhibition of mRNA gene expression, IDH3α” value (“Percent inhibition … IDH3α” for short) amounted to 5.79 ± 45.6%.
Take `O=c1[nH]c(=O)n([C@H]2C[C@H](O)[C@@H](CO)O2)cc1C(F)(F)F` [Trifluridine]: in test [1], the “ERR-HEK293 Follow-Up Viability EC50” value is listed as “Inactive” and the “ERR-HEK293 Primary Viability EC50” value was “Inactive”. Besides, in test [2], the “PGC/ERR-HEK293 Follow-Up Viability EC50” value is given as “Inactive Inactive” and the “PGC/ERR-HEK293 Primary Viability EC50” value is recorded as “Inactive Inactive”. Besides, in the test with COX8α (1 µM), the “Percent inhibition of mRNA gene expression, COX8α” value (“Percent inhibition … COX8α” for short) is reported as 43.2 ± 21.8%. Moreover, in test [3] (follow-up screen, mean ± SD, triplicate), the “PGC/ERR-HEK293 Follow-Up EC50” value is reported as “Inactive Inactive”. The “PGC/ERR-HEK293 Primary EC50” value in test [3] (primary qHTS, 18 h, mean ± SD, triplicate) is on record as “Inactive Inactive”. In test [4] (setting [5]), this molecule gave an EC50 of 1750 ± 314 nM. In test [4] (setting [6]), this molecule had an EC50 of 875 ± 59.3 nM. Also, in test [4], the “ERR-HEK293 Follow-Up Efficacy” value is −67.7 ± 6.20% and the “ERR-HEK293 Primary Efficacy” value is given as −51.8 ± 5.77%.
Regarding `CC[C@@]1(O)C(=O)OCc2c1cc1n(c2=O)Cc2cc3c(CN(C)C)c(O)ccc3nc2-1` [Topotecan hydrochloride], in test [1], the “ERR-HEK293 Follow-Up Viability EC50” value is recorded as “Inactive”. In test [1], the “ERR-HEK293 Primary Viability EC50” value is recorded as “Inactive”. The “PGC/ERR-HEK293 Follow-Up Viability EC50” value in test [2] is given as “Inactive”. In test [2], the “PGC/ERR-HEK293 Primary Viability EC50” value is listed as “Inactive”. The half-maximal effective concentration (EC50) came to 5260 nM in test [3] (setting [7]), 14100 ± 1150 nM in test [3] (setting [8]), 722 ± 285 nM in test [4] (setting [5]) and 1240 ± 83.7 nM in test [4] (setting [6]). In addition, in test [3] (follow-up screen), the “PGC/ERR-HEK293 Follow-Up Efficacy” value is on record as −78.8 ± 7.20%. Moreover, the “PGC/ERR-HEK293 Primary Efficacy” value in test [3] (primary qHTS) is −69.1 ± 5.82%. Moreover, the “ERR-HEK293 Follow-Up Efficacy” value in test [4] was −140 ± 24.4%. In addition, the results for the “ERR-HEK293 Primary Efficacy” value in test [4] and in test [4] (listed as topotecan) were −127 ± 11.8% and −127%, respectively.
`CON=C(C(=O)OC)c1ccccc1CON=C(C)c1cccc(C(F)(F)F)c1` [Trifloxystrobin]: in the test with COX8α (0.5 µM), the “Percent inhibition … COX8α” value came to 38.4 ± 17.2%. The “Percent inhibition … IDH3α” value with IDH3α (0.5 µM) stood at 10.4 ± 0.21%.
Take `Cc1nn(C)c(Oc2ccccc2)c1C=NOCc1ccc(C(=O)OC(C)(C)C)cc1` [Fenpyroximate]: in the test on cytochrome c (7.5 nM), the “Percent inhibition of mRNA gene expression, Cytochrome C” value (“Percent inhibition … Cytochrome C” for short) is listed as 5.28 ± 4.56%. The EC50 came to 18.6 ± 21 nM in test [3] (setting [7]); 8.75 ± 0.572 nM in test [3] (setting [8]); 8.8 nM in test [3] (potency, ERR/PGC antagonist assay, primary screen); 6.99 ± 3.28 nM in test [4] (setting [5]); 4.52 ± 0.577 nM in test [4] (setting [6]); 4.5 nM in test [4] (potency, ERR antagonist assay, primary screen). Also, the “PGC/ERR-HEK293 Follow-Up Efficacy” value in test [3] (follow-up screen) is reported as −56.2 ± 10.5%. In addition, in test [3] (primary qHTS), the “PGC/ERR-HEK293 Primary Efficacy” value was −36.8% and −36.8 ± 2.17%. The “ERR-HEK293 Follow-Up Efficacy” value in test [4] is −89.6 ± 6.08%. In addition, in test [4], the “ERR-HEK293 Primary Efficacy” value is given as −67.1 ± 9.31%.
Consider `CO/N=C(/C1=NOCCO1)c1ccccc1Oc1ncnc(Oc2ccccc2Cl)c1F` [Fluoxastrobin], for which, in the test on IDH3α (7 µM), the “Percent inhibition … IDH3α” value is 13.3 ± 2.44%. The “Percent inhibition … Cytochrome C” value in the test with cytochrome c (7 µM) was determined as 25.5 ± 7.81%.
On to `Nc1ccc2cc3ccc(N)cc3nc2c1` [Proflavin hemisulfate], for which, in the test with COX8α (3 µM), the “Percent inhibition … COX8α” value is listed as 34.8 ± 26.7%. Moreover, in the test on IDH3α (3 µM), the “Percent inhibition … IDH3α” value is 24.9 ± 20.6%. In the test with cytochrome c (3 µM), the “Percent inhibition … Cytochrome C” value turned out to be 20.6 ± 8.69%.
